This is an account of results in patent US7928140B2, “Benzothiazole PI3 kinase modulators for cancer treatment” (Amgen Inc., priority 2007, dated 2011).

Usually IC50 stands for the concentration needed to halve the response being measured.

A value given as a limit tells only on which side of the number the result lay.

The target of one assay is T1, PI3K α (Homo sapiens, UniProt P42336).
T1 construct: Full length p110 subunits of PI3K α, β and δ, N-terminally labeled with polyHis tag; polyHis (N); made in house; host or cells: Sf9 insect cells (baculovirus)
T1 sequence (P42336 whole entry, species assumed): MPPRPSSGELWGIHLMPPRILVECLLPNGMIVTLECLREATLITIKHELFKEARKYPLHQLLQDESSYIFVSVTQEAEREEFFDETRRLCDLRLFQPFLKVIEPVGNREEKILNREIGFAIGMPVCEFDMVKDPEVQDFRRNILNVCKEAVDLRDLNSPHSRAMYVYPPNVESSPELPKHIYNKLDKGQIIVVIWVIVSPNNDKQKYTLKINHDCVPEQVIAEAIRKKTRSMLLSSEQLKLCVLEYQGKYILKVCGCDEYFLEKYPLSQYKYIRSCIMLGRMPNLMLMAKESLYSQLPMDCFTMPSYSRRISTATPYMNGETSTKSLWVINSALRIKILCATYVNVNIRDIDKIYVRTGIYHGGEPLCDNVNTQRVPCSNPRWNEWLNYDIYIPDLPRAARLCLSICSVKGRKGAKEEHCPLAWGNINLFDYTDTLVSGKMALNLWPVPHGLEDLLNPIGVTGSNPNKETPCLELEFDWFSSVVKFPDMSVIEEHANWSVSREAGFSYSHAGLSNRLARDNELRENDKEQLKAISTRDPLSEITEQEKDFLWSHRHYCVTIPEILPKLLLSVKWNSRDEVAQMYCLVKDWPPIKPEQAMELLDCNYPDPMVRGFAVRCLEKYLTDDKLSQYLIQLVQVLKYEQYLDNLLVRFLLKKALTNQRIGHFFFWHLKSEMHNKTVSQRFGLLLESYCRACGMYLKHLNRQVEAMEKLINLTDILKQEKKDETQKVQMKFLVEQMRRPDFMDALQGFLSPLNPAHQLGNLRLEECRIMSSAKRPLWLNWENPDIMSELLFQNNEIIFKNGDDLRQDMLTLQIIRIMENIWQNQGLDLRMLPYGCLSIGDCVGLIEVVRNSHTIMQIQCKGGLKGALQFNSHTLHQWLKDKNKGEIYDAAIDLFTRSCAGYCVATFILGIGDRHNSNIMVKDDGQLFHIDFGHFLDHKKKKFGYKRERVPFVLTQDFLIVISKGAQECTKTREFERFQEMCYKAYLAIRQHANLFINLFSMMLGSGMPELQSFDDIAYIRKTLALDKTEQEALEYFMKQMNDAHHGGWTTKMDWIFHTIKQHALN
T1 sequence (P27986 whole entry partner, species assumed): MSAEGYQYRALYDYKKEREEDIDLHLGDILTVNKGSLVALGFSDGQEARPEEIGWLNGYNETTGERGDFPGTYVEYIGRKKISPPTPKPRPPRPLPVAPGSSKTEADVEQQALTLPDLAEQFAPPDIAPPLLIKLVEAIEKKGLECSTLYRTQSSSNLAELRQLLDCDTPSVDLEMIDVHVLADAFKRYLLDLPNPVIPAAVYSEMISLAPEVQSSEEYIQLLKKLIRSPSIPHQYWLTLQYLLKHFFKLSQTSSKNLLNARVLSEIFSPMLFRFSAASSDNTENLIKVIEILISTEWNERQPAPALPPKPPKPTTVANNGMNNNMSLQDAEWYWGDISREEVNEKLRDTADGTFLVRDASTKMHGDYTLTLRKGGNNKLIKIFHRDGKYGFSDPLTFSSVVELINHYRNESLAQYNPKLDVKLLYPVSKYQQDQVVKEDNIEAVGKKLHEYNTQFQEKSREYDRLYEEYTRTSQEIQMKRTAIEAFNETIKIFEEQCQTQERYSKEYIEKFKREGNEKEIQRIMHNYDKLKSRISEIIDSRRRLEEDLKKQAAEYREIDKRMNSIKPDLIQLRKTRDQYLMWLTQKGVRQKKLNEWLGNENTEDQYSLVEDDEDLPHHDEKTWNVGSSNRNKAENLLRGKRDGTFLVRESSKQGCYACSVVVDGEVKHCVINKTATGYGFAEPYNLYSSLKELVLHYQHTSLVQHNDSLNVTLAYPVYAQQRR
The assay can be described thus: In vitro PI3 kinase enzyme assay (alpha), ATP loss, bioluminescence.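 Further: purified p110α/p85 heterodimer acting on PtdIns(4,5)P2 at room temperature, remaining ATP read by luminescence, inhibition scaled between compound-free wells with and without enzyme.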 Format: biochemical. As to conditions: read-out: PI3Kα ATP loss IC50.

Another assay addresses T2, PI3K β (Homo sapiens, UniProt P42338).
T2 construct: Full length p110 subunits of PI3K α, β and δ, N-terminally labeled with polyHis tag; polyHis (N); made in house; host or cells: Sf9 insect cells (baculovirus)
The assay can be described thus: In vitro PI3 kinase enzyme assay (beta), ATP loss, bioluminescence.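 Further: purified p110β/p85 heterodimer with PtdIns(4,5)P2 as acceptor, incubated at room temperature, leftover ATP read by luminescence, inhibition scaled to compound-free wells with and without enzyme.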 Format: biochemical. As to conditions: read-out: PI3Kβ ATP loss IC50.

T2 sequence (P42338 whole entry): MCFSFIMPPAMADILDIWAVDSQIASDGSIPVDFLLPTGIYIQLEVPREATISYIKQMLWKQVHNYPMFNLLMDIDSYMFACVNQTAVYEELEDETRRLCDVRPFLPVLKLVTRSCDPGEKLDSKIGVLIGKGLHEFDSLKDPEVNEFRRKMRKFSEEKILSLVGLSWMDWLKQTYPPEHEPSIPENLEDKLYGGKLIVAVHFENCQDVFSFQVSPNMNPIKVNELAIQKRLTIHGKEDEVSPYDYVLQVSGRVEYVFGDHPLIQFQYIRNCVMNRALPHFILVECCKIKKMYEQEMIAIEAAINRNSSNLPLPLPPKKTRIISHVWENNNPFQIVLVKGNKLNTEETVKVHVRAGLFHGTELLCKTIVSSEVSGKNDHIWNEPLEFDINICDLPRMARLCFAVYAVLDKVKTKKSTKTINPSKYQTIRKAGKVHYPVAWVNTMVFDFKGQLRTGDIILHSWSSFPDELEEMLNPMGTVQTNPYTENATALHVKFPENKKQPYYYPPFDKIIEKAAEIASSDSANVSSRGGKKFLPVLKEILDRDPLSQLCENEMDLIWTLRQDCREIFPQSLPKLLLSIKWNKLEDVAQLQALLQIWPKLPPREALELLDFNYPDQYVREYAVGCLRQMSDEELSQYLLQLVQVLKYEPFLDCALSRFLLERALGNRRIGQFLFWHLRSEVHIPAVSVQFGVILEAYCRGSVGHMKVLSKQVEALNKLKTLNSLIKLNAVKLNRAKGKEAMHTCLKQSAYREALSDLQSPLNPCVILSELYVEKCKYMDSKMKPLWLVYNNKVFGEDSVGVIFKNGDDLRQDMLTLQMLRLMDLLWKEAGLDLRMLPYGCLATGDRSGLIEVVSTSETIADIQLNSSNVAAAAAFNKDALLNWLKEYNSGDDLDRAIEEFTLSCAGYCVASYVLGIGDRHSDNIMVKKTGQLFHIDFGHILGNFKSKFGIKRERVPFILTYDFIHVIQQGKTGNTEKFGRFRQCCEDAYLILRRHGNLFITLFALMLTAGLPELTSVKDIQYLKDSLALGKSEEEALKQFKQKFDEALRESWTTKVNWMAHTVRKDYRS
T2 sequence (P27986 whole entry partner): as the sequence (P27986 whole entry partner, species assumed) above
Procedure for PI3K α: Full length p110 subunits of PI3K α, β and δ, N-terminally labeled with polyHis tag, were co-expressed with p85 in baculovirus expression vectors in sf9 insect cells. P110/p85 heterodimers were purified by sequential Ni-NTA, Q-HP, and Superdex-100 chromatography. Purified α, β and δ isozymes were stored at −20° C. in 20 mM Tris, pH 8, 0.2M NaCl, 50% glycerol, 5 mM DTT, 2 mM Na cholate.
PI3K enzyme assays (alpha, beta, delta and gamma) were performed in 25 mL with the above final concentrations of components in white polypropylene plates (Costar catalogue #3355). Phosphatidyl inositol phosphoacceptor, PtdIns(4,5)P2 (eg. P4508) was obtained from Echelon Biosciences. The ATPase activity of the alpha and gamma isozymes was not greatly stimulated by PtdIns(4,5)P2 under these conditions and was therefore omitted from the assay of these isozymes. Test compounds were dissolved in DMSO and diluted with three-fold serial dilutions. The compound in DMSO (1 μL) was added per test well, and the inhibition relative to reactions containing no compound, with and without enzyme was determined. After assay incubation at RT, the reaction was stopped and residual ATP determined by addition of an equal volume of a commercial ATP bioluminescence kit (Perkin Elmer EasyLite) according to the manufacturer's instructions, and detected using an Analyst GT luminometer.

For `CC(=O)Nc1nc2ccc(-c3cnccc3CO)cc2s1` [Example 251, N-(6-(4-(hydroxymethyl)pyridin-3-yl)benzo[d]thiazol-2-yl)acetamide], the IC50 on PI3K α was 1910 nM; at PI3K β it was more than 40000 nM.
On to `CC(=O)Nc1nc2ccc(-c3ccnc(OCCO)n3)cc2s1` [Example 104, N-(6-(2-(2-hydroxyethoxy)-4-pyrimidinyl)-1,3-benzothiazol-2-yl)acetamide], for which the concentration for half-maximal inhibition (IC50) is 540 nM at PI3K α and more than 40000 nM at PI3K β.
Take `CCC(=O)Nc1nc2ccc(-c3ccnc(OCc4ccccc4)n3)cc2s1` [Example 57, N-(6-(2-(benzyloxy)-4-pyrimidinyl)-1,3-benzothiazol-2-yl)propanamide]: the half-maximal inhibitory concentration (IC50) on PI3K α was 277 nM; on PI3K β, 8830 nM.
For `CC(=O)Nc1nc2ccc(-c3ccnc(OCCc4cccnc4)n3)cc2s1` [Example 18, N-(6-(2-(2-(3-pyridinyl)ethoxy)-4-pyrimidinyl)-1,3-benzothiazol-2-yl)acetamide] the same measures were 1100 nM and 32200 nM.
Taken in the same sequence, the figures for `COc1cc(Cl)ncc1-c1ccc2nc(NC(C)=O)sc2c1` [Example 246, N-(6-(6-chloro-4-methoxypyridin-3-yl)benzo[d]thiazol-2-yl)acetamide] were 256 nM and 12400 nM.
For `CC(=O)Nc1nc2ccc(-c3cccc(S(=O)(=O)c4ccccc4)n3)cc2s1` [Example 65, N-(6-(6-(phenylsulfonyl)pyridin-2-yl)benzo[d]thiazol-2-yl)acetamide] the same measures were 221 nM and more than 40000 nM.
On to `CC(=O)Nc1nc2ccc(-c3ccnc(N(C)S(=O)(=O)c4cn(C)cn4)n3)cc2s1` [Example 211, N-(6-(2-(N,1-dimethyl-1H-imidazole-4-sulfonamido)pyrimidin-4-yl)benzo[d]thiazol-2-yl)acetamide], for which the results for the IC50 on PI3K α and on PI3K β were 929 nM and 3930 nM, respectively.
Turning to `COCCCOc1nccc(-c2ccc3nc(NC(C)=O)sc3c2)n1` [Example 5, N-(6-(2-(3-methoxypropoxy)-4-pyrimidinyl)-1,3-benzothiazol-2-yl)acetamide], on PI3K β, the IC50 is more than 40000 nM.
With `CC(=O)Nc1nc2ccc(-c3ccnc(CCc4ccccc4)n3)cc2s1` [Example 15, N-(6-(2-(2-phenylethyl)-4-pyrimidinyl)-1,3-benzothiazol-2-yl)acetamide], the IC50 at PI3K β was 6470 nM.
Consider `CC(=O)Nc1nc2ccc(-c3ccnc(Sc4ccccc4)n3)cc2s1` [Example 21, N-(6-(2-(phenylsulfanyl)-4-pyrimidinyl)-1,3-benzothiazol-2-yl)acetamide], for which the IC50 at PI3K β worked out at 309 nM.
The same measure, in the same setting: the result for `CC(=O)Nc1nc2ccc(-c3ccnc(Cl)n3)cc2s1` [Example 105, N-(6-(2-chloro-4-pyrimidinyl)-1,3-benzothiazol-2-yl)acetamide] reads 8270 nM; that for `CC(=O)Nc1nc2ccc(-c3ccnc(OCCN4CCOCC4)n3)cc2s1` [Example 11], more than 40000 nM.
With `COc1ccc(S(=O)(=O)Nc2cccc(-c3ccc4nc(NC(C)=O)sc4c3)c2)cc1` [Example 260, N-(6-(3-(4-methoxyphenylsulfonamido)phenyl)benzo[d]thiazol-2-yl)acetamide], on PI3K β, the IC50 was 413 nM.
Take `CC(=O)Nc1nc2ccc(-c3cccc(N)c3)nc2s1` [Example 156, N-(5-(3-aminophenyl)thiazolo[5,4-b]pyridin-2-yl)acetamide]: the half-inhibitory concentration (IC50) at PI3K α turned out to be 642 nM.
Same read-out and setting: the result for `COc1ccc(COc2nccc(-c3ccc4nc(NC(C)=O)sc4c3)n2)cc1` [Example 38, N-(6-(2-((4-methoxybenzyl)oxy)-4-pyrimidinyl)-1,3-benzothiazol-2-yl)acetamide] reads 126 nM.
As for `COc1ccccc1Sc1nccc(-c2ccc3nc(NC(C)=O)sc3c2)n1` [Example 28, N-(6-(2-((2-methoxyphenyl)sulfanyl)-4-pyrimidinyl)-1,3-benzothiazol-2-yl)acetamide], the IC50 at PI3K β came to 491 nM.
As to `CC(=O)Nc1nc2ccc(-c3ccnc(Oc4ccccc4)n3)cc2s1` [Example 33, N-(6-(2-phenoxy-4-pyrimidinyl)-1,3-benzothiazol-2-yl)acetamide], the half-inhibitory concentration (IC50) at PI3K β was 5970 nM.
